# Target: ASCT2 (Homo sapiens (Human), UniProt Q15758)
# Test: 3H-glutamine uptake inhibition in live HEK-293 cells
# Format: cell-based
# Details: for IC50: inhibition of 3H-glutamine (500 nM) uptake, HEK293 cells, 15 min at 37° C., pH 6.0; for potency compared with GPNA (in words): 3H-glutamine uptake, HEK-293 cells
# Text: Initial compound libraries focused on 2, 3, and 4 substituted Nγ-glutamylanilides with aryl, alicyclic, and heterocyclic substitutions. To evaluate the biological activity, compounds were initially screened at a single concentration for their ability to inhibit ^3H-glutamine uptake in live HEK-293 cells, an established model suitable for evaluating ASCT2 activity. […] The present inventors prioritized the 2-substitution as a determinant of ASCT2 activity among this series.
# The glutamine uptake assays in HEK293 cells were carried out in 96 well plates (CulturPlate-96, Perkin Elmer). Cells were plated at a density of 35,000 cells per well 24 hours prior to carrying out the assay. Each set of conditions is carried out in triplicate. The wells are washed three times with 100 uL of assay buffer at pH 6.0 (containing 137 mM NaCl, 5.1 mM KCl, 0.77 mM KH2PO4, 0.71 mM MgSO4.7H2O, 1.1 mM CaCl2, 10 mM D-glucose, and 10 mM HEPES). […] (500 nM) in the same buffer is added along with inhibitor and allowed to incubate for 15 min at 37° C. Following incubation, the H-glutamine/inhibitor is removed and the cells are washed three times with buffer. The cells are then lysed by the addition of 50 uL 1M NaOH. 150 uL of scintillation fluid (Microscint 40, Perkin Elmer) is added and the plates are counted on a scintillation counter (Topcount, Perkin Elmer).
# Sequence of ASCT2 (Q15758 whole entry): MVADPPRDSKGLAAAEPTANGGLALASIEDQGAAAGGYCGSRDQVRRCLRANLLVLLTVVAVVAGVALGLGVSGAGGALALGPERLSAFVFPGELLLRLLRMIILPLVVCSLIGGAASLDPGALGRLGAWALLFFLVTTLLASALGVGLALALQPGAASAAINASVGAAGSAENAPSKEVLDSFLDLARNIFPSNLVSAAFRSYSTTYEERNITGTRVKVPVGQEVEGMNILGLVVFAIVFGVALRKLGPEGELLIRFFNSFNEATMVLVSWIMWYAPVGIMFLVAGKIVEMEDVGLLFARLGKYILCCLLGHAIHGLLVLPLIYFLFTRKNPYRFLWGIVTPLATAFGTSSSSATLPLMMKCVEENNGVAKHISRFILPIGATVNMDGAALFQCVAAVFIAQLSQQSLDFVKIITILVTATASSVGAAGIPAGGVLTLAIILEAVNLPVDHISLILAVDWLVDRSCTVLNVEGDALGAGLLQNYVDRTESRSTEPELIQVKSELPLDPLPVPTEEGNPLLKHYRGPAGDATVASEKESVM
IC50 [µM],potency compared with GPNA (in words),Structure (SMILES)
776,–,N[C@@H](CCC(=O)Nc1ccccc1N1CCCCC1)C(=O)O [Compound 12]
677,–,N[C@@H](CCC(=O)NCc1ccccc1CS(=O)(=O)N1CCOCC1)C(=O)O [Compound 19]

# The remaining lines, values behind:
Structure (SMILES),IC50 [µM],potency compared with GPNA (in words)
"N[C@@H](CCC(=O)Nc1ccc([N+](=O)[O-])cc1)C(=O)O [Compound 1, L-γ-glutamyl-p-nitroanilide, reference compound]",954,–
"N[C@@H](CCC(=O)Nc1ccccc1-c1nc2ccccc2s1)C(=O)O [Compound 4, N^5-(2-(benzo[d]thiazol-2-yl)phenyl)-L-glutamine]",436,significantly greater potency than GPNA
N[C@@H](CCC(=O)Nc1ccccc1CCc1ccncc1)C(=O)O [Compound 16],832,–
"CN1CCN(Cc2ccccc2CNC(=O)CC[C@H](N)C(=O)O)CC1 [Compound 20, N5-(2-((4-methylpiperazin-1-yl)methyl)benzyl)-L-glutamine]",697,significantly greater potency than GPNA
